Assays:
UT-A1 = biological target: T1, UT-A1 (Rattus norvegicus, UniProt Q62668); assay: Transepithelial urea transport in MDCK cells stably expressing UT-A1; assay type: cell-based; details: UTBinh-14 10 μM, forskolin
T1 construct: expressed in transfected cells; host or cells: MDCK cells (MDCK-UT-A1), obtained as described in cited literature
T1 sequence (Q62668 1-929): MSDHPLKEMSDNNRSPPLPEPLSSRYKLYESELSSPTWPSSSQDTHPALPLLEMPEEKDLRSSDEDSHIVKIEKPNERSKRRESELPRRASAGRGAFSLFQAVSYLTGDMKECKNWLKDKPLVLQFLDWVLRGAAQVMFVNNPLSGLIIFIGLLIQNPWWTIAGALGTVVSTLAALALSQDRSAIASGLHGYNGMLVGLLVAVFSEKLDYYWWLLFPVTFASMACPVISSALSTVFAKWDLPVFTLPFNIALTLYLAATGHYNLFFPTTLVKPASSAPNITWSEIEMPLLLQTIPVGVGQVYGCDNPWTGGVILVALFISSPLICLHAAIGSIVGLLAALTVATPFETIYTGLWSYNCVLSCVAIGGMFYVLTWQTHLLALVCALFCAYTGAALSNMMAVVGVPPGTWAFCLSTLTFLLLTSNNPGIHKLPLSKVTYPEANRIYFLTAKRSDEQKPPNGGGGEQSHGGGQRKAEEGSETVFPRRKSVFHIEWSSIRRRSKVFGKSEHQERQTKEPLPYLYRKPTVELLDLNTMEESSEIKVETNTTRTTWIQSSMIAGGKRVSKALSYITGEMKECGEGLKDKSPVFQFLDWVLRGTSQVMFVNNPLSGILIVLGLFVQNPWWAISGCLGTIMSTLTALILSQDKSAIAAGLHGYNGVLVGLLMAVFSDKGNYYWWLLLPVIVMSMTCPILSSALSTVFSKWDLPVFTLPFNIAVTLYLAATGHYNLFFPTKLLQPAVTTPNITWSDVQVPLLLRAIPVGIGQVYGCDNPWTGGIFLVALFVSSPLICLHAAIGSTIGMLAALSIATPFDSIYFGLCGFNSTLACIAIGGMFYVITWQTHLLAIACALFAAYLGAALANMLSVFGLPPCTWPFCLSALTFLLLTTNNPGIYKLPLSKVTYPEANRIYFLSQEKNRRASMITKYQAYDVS
Protocol: (§1) UT-B selectivity and cytotoxicity were studied. Because of sequence similarities between UT-B and UT-A isoforms, UT-A inhibition was measured. Transepithelial urea transport was measured in MDCK cells stably expressing UT-A1, UT-A3, and UT-B. UT-A1 and UT-A3 are cAMP-regulated urea transporters expressed in kidney tubule epithelia (see, e.g., Frohlich et al., Am. J. Physiol. Cell Physiol. 291:C600-606 (2006); Tickle et al., Am. J. Physiol. Regul. Integr. Comp Physiol 0.297: R323-329 (2009); Stewart et al., Am. J. Physiol. Renal Physiol. 292:F1157-63 (2006)). MDCK cells were cultured on collagen-coated porous filters for measurement of urea accumulation in the apical solution following addition of urea to the basolateral solution.
(§2) cDNAs encoding mouse UT-A3 and UT-B were cloned into pcDNA3.1 and used to generate stably transfected MDCK cell lines. MDCK cells stably expressing rat UT-A1 (MDCK-UT-A1) (see, e.g., Frohlich et al., supra) were obtained as described (see, e.g., Levin et al., FASEB J., supra). Cells were cultured in DMEM containing 10% FBS and 0.5 mg/mL G418. […] Urea flux in the basolateral-to-apical direction across unstimulated and forskolin-stimulated cell layers was measured in response to a 15-mM urea gradient. […]

UT-B = biological target: T2, UT-B (Mus musculus, UniProt Q8VHL0); assay: Transepithelial urea transport in MDCK cells stably expressing UT-B; assay type: cell-based; details: UTBinh-14 10 μM
T2 sequence (Q8VHL0 1-384): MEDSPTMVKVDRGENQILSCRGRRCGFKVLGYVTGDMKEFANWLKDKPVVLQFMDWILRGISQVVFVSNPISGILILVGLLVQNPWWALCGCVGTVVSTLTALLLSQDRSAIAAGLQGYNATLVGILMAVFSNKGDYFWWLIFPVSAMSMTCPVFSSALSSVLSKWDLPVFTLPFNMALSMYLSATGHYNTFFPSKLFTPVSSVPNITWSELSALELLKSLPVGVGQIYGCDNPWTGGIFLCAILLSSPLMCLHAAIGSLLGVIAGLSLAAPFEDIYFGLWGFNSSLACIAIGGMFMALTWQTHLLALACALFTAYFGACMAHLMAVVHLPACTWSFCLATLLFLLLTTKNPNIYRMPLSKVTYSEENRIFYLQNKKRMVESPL
Protocol: as §1, §2

CCc1ccc(S(=O)(=O)c2nnn3c2nc(NCc2cccs2)c2sccc23)cc1 [UTBinh-14, [3-(4-Ethyl-benzenesulfonyl)-thieno[2,3-e][1,2,3]triazolo[1,5-a]pyrimidin-5-yl]-thiophen-2-ylmethylamine]
inhibition of UT-A1 facilitated urea transport (UT-A1): little inhibition
inhibition of UT-B facilitated urea transport (UT-B): strongly inhibited
